Results as given in patent publication US20220347175A1, “PYRIDAZINONE DERIVATIVE” (Sumitomo Dainippon Pharma Co., Ltd., priority 2018, published 2022).

Assays:
human Nav1.5 = biological target: T1, human Nav1.5 (Homo sapiens, UniProt Q14524); experiment: Amplification of Nav1.5-derived voltage-dependent sodium current (Nav1.5 current), cell line stably expressing human Nav1.5, automated patch clamp; type: cell-based; conditions: 10 μmol/L compound; change of the area under the curve of Nav1.5 current (Test Result 1)
T1 construct: expressed in transfected cells; host or cells: CHO-K1 (T-REx System, ThermoFisher Scientific)

human Nav1.1 = biological target: T2, human Nav1.1 (Homo sapiens, UniProt P35498); experiment: Amplification of Nav1.1-derived voltage-dependent sodium current (Nav1.1 current), cell line stably expressing human Nav1.1, automated patch clamp; type: cell-based; conditions: 10 μmol/L compound; change of the area under the curve of Nav1.1 current (Test Result 1)
T2 construct: host or cells: HEK293
Outline: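 Automated whole-cell voltage-clamp recordings used HEK293 cells stably expressing human Nav1.1, keeping only cells with >500 pA current, with currents evoked by ramp voltage. Compounds were applied in extracellular fluid with 1% DMSO, and amplification (%) was computed from peak current or AUC after versus before addition.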

T1 sequence (Q14524 1-2015 isoform Q14524-2): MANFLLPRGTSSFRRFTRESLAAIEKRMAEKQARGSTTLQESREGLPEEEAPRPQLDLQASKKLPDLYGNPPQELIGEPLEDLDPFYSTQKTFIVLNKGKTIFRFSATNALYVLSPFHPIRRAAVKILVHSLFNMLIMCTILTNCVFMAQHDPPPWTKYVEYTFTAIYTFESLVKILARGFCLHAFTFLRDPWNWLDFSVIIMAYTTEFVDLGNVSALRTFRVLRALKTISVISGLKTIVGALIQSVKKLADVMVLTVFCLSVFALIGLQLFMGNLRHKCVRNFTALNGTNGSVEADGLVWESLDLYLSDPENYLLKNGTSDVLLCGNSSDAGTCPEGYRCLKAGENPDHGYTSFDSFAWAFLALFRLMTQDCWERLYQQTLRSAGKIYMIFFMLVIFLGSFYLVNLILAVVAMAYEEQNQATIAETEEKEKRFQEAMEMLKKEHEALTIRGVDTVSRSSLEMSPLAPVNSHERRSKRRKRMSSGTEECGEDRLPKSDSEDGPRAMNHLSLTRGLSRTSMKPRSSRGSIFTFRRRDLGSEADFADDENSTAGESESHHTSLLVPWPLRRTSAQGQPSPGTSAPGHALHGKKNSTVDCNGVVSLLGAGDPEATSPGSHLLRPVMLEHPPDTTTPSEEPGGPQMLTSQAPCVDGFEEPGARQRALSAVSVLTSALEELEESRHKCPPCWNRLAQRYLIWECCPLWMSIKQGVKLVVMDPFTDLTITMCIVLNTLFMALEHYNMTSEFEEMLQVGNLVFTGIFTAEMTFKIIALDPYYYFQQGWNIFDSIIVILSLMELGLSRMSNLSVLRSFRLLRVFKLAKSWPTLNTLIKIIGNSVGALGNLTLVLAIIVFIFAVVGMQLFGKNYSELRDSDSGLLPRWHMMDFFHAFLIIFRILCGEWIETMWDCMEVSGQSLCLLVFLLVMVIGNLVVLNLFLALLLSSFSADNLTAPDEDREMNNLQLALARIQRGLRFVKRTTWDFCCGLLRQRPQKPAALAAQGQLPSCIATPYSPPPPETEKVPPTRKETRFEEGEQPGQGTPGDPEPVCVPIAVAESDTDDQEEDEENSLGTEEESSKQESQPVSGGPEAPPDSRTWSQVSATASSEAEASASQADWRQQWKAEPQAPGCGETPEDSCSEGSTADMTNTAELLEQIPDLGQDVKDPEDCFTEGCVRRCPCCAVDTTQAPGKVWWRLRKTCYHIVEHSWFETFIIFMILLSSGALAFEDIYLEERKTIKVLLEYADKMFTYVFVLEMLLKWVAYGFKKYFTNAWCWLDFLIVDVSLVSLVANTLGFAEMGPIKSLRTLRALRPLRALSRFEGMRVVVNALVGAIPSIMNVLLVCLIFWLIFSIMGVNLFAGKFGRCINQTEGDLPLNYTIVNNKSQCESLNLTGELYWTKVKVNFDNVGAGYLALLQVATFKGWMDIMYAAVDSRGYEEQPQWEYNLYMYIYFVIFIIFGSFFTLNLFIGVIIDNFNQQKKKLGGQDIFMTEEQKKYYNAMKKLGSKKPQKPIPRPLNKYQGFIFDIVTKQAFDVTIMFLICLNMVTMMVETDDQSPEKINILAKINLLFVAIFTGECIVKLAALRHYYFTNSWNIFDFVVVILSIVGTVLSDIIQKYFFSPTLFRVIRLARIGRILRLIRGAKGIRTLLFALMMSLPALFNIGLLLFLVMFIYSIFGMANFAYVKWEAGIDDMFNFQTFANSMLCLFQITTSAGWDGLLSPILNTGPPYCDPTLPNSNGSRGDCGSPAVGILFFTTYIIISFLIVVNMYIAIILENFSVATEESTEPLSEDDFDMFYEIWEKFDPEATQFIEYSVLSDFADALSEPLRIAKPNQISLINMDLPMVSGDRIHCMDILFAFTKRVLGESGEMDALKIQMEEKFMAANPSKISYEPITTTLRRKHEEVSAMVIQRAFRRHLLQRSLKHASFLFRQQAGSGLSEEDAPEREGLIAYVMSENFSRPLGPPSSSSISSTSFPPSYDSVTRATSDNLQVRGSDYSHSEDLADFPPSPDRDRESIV

SMILES | Nav1.5 current amplification rate (%) (human Nav1.5) | Nav1.1 current amplification rate (%) (human Nav1.1)
Cc1ccc(N2CCN(C(=O)Cn3nc(C4=CCC(C)CC4)ccc3=O)CC2)cn1 (racemic) [Example 396] | 8 | 136
CC1CCN(c2ccc(=O)n(CC(=O)Nc3ccc4nsnc4c3)n2)CC1 [Example 95] | 18 | 221
O=C(Cn1nc(-c2ccc(C(F)(F)F)nc2)ccc1=O)Nc1ccc2ocnc2c1 [Example 453] | 1 | 15
